Values joined by “and” are separate entries in the source; they are usually repeats but may differ in a detail not shown here. Equal entries are not always repeated. Where two headings read alike, the source gives them in different places. Each block holds one molecule with its values, some of them ahead of it.
Columns and labels:
CDK2–cyclin A = biological target: T1, CDK2–cyclin A (Homo sapiens, UniProt P24941); assay: Lanthascreen kinase binding assay, CDK2; details: for Lanthascreen signal, sheet CDK2: raw replicates
T1 construct: purchased Thermo Fisher
Description: Lanthascreen experiments were performed using commercially available reagents (Thermo Fisher) and according to the manufacturer’s instructions.

[1] = tested on: cyclin K–eGFP degradation reporter; assay: Cyclin K reporter stability analysis (dual-color cyclin K–eGFP reporter); assay type: cell-based, human
Outline: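 Readout: flow-cytometric eGFP/mCherry ratio (geometric means, round mCherry+ gate) relative to the average of three DMSO wells. Reporter line was HEK293T–Cas9, treated 5 h with compound.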

CDK12–cyclin K and DDB1 = biological target: T2, CDK12–cyclin K and DDB1 (Homo sapiens, UniProt Q16531+Q9NYV4, K965R); assay: TR-FRET ternary complex formation assay (compound titration); assay type: binding
T2 construct: His6–CDK12 (a.a. 713–1,052); full-length or beta-propeller B domain deletion (ΔBPB: a.a. 396–705 deleted) constructs of His6–DDB1ΔBPB, StrepII–Avi–DDB1, or His6–Spy–DDB1; made in house; host or cells: Trichoplusia ni High Five insect cells (baculovirus)
Outline: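 Signal was the ratio of 520 nm to 490 nm fluorescence, measured after a 70 μs delay that reduced background.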

[2] = Compound 0.038147 nM, experiment r13-r23
[3] = Compound 0.152588 nM, experiment r13-r23
[4] = Compound 0.610352 nM, experiment r13-r23
[5] = Compound 1.02544 nM, experiment r1-r11
[6] = Compound 3.15521 nM, experiment r1-r11
[7] = Compound 9.46563 nM, experiment r1-r11
[8] = Compound 9.76563 nM, experiment r13-r23
[9] = Compound 31.5521 nM, experiment r1-r11
[10] = Compound 39.0625 nM, experiment r13-r23
[11] = Compound 99.3891 nM, experiment r1-r11
[12] = Compound 156.25 nM, experiment r13-r23
[13] = Compound 315.521 nM, experiment r1-r11
[14] = Compound 625 nM, experiment r13-r23
[15] = Compound 2500 nM, experiment r13-r23
[16] = Compound 3155.21 nM, experiment r1-r11
[17] = Compound 10000 nM, experiment r13-r23
[18] = Compound 10002 nM, experiment r1-r11
[19] = Lanthascreen, average, Extended Data Fig. 8, read-out: CDK2 IC50
[20] = Supplementary Table 2, read-out: Lanthascreen IC50 [nM] CDK2
[21] = compound concentration 0.468 nM
[22] = compound concentration 7.92001 nM
[23] = compound concentration 15.84 nM
[24] = compound concentration 30.96 nM
[25] = compound concentration 62.6401 nM
[26] = compound concentration 79.2001 nM
[27] = compound concentration 125.28 nM
[28] = compound concentration 158.4 nM
[29] = compound concentration 244.8 nM
[30] = compound concentration 309.6 nM
[31] = compound concentration 626.401 nM
[32] = compound concentration 993.601 nM
[33] = compound concentration 1252.8 nM
[34] = compound concentration 2001.6 nM
[35] = compound concentration 9936.01 nM
[36] = compound concentration 20016 nM
[37] = in vitro complex formation, 50 nM CDK12–cyclin K, 100 nM DDB1, text and figures, read-out: TR-FRET EC50
[38] = sheet MOESM7, read-out: log TR-FRET EC50 (converted)

T2 sequence (Q9NYV4 713-1052 K965R): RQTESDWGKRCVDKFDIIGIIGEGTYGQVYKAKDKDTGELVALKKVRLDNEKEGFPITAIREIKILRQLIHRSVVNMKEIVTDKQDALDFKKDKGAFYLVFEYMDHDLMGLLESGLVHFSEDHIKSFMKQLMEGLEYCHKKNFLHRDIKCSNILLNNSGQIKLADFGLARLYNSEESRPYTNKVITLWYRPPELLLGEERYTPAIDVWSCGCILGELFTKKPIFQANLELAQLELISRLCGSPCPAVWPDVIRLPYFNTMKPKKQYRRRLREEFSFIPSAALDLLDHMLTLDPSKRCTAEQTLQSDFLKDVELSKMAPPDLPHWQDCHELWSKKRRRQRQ
T2 sequence (O75909 1-267 partner): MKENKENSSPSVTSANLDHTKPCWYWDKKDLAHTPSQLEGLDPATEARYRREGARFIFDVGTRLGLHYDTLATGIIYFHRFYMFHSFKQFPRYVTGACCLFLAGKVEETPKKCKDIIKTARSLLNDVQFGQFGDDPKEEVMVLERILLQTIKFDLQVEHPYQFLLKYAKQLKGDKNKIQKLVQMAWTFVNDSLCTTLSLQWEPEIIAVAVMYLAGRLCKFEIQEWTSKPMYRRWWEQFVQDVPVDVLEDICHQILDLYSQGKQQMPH
T2 sequence (Q16531 whole entry): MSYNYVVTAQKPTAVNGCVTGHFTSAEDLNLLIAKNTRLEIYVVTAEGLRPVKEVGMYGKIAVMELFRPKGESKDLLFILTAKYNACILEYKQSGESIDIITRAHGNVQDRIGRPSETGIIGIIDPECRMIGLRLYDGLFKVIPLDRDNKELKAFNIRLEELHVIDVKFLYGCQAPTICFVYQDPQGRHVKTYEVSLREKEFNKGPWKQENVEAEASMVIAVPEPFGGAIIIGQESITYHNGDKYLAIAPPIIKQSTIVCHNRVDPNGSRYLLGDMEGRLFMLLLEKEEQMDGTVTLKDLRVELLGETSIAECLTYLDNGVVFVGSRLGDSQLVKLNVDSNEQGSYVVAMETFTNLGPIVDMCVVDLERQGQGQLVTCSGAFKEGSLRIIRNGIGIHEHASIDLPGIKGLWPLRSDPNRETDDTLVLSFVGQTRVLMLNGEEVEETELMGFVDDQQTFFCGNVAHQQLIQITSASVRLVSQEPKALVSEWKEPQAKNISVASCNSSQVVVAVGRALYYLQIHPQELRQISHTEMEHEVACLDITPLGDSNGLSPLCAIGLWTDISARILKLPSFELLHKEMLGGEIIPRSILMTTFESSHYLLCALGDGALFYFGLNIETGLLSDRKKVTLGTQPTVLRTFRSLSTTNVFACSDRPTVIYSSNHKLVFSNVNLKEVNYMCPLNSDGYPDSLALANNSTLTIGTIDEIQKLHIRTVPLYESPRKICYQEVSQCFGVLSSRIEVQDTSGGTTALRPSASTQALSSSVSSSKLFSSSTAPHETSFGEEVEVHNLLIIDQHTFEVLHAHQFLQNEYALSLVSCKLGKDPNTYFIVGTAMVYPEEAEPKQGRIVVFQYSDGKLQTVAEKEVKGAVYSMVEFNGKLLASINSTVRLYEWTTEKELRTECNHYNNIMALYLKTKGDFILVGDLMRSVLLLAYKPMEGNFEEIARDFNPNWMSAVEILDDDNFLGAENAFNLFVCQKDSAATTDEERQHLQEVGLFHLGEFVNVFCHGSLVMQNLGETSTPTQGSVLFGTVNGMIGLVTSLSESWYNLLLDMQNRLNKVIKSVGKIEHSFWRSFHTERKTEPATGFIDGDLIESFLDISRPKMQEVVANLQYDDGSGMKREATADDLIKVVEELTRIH

Lanthascreen signal, sheet CDK2 (CDK2–cyclin A; [2]): 0.01285 and 0.01289
Lanthascreen signal, sheet CDK2 (CDK2–cyclin A; [3]): 0.01318 and 0.01321
Lanthascreen signal, sheet CDK2 (CDK2–cyclin A; [4]): 0.01258 and 0.01278
Lanthascreen signal, sheet CDK2 (CDK2–cyclin A; [5]): 0.008366 and 0.009193
Lanthascreen signal, sheet CDK2 (CDK2–cyclin A; [6]): 0.01197 and 0.009076
Lanthascreen signal, sheet CDK2 (CDK2–cyclin A; [7]): 0.01142 and 0.01118
Lanthascreen signal, sheet CDK2 (CDK2–cyclin A; [8]): 0.01261 and 0.01356
Lanthascreen signal, sheet CDK2 (CDK2–cyclin A; [9]): 0.01118 and 0.009287
Lanthascreen signal, sheet CDK2 (CDK2–cyclin A; [10]): 0.01377 and 0.01313
Lanthascreen signal, sheet CDK2 (CDK2–cyclin A; [11]): 0.01102 and 0.008633
Lanthascreen signal, sheet CDK2 (CDK2–cyclin A; [12]): 0.01301 and 0.01263
Lanthascreen signal, sheet CDK2 (CDK2–cyclin A; [13]): 0.01039 and 0.01098
Lanthascreen signal, sheet CDK2 (CDK2–cyclin A; [14]): 0.01331 and 0.01224
Lanthascreen signal, sheet CDK2 (CDK2–cyclin A; [15]): 0.0123 and 0.01244
Lanthascreen signal, sheet CDK2 (CDK2–cyclin A; [16]): 0.0101 and 0.009174
Lanthascreen signal, sheet CDK2 (CDK2–cyclin A; [17]): 0.01049 and 0.00891
Lanthascreen signal, sheet CDK2 (CDK2–cyclin A; [18]): 0.008182 and 0.007001
IC50 (CDK2–cyclin A; [19]): > 10000 nM
IC50 (CDK2–cyclin A; [20]): > 10000 nM
DC50 ([1]; Supplementary Table 2, HEK293T cycK-eGFP reporter, 5 h, read-out: Cellular assays DC50): > 10000 nM
EC50 (CDK12–cyclin K and DDB1; Supplementary Table 2, read-out: TR-FRET EC50 TR-FRET): 263 nM
TR-FRET signal (CDK12–cyclin K and DDB1; [21]): 0.3108 and 0.3043
TR-FRET signal (CDK12–cyclin K and DDB1; compound concentration 2.16 nM): 0.3247 and 0.3252
TR-FRET signal (CDK12–cyclin K and DDB1; compound concentration 3.6 nM): 0.3605 and 0.3572
TR-FRET signal (CDK12–cyclin K and DDB1; compound concentration 4.68 nM): 0.1862 and 0.1908
TR-FRET signal (CDK12–cyclin K and DDB1; [22]): 0.4123 and 0.4112
TR-FRET signal (CDK12–cyclin K and DDB1; [23]): 0.5374 and 0.5369
TR-FRET signal (CDK12–cyclin K and DDB1; compound concentration 21.6 nM): 0.3061 and 0.3287
TR-FRET signal (CDK12–cyclin K and DDB1; [24]): 0.7082 and 0.7121
TR-FRET signal (CDK12–cyclin K and DDB1; compound concentration 36 nM): 0.5639 and 0.6148
TR-FRET signal (CDK12–cyclin K and DDB1; [25]): 1.02 and 1.082
TR-FRET signal (CDK12–cyclin K and DDB1; [26]): 0.9671 and 1.036
TR-FRET signal (CDK12–cyclin K and DDB1; [27]): 1.467 and 1.538
TR-FRET signal (CDK12–cyclin K and DDB1; [28]): 1.482 and 1.527
TR-FRET signal (CDK12–cyclin K and DDB1; [29]): 2.062 and 2.196
TR-FRET signal (CDK12–cyclin K and DDB1; [30]): 2.068 and 2.079
TR-FRET signal (CDK12–cyclin K and DDB1; [31]): 2.602 and 2.623
TR-FRET signal (CDK12–cyclin K and DDB1; [32]): 3.096 and 3.149
TR-FRET signal (CDK12–cyclin K and DDB1; [33]): 3.107 and 3.1711
TR-FRET signal (CDK12–cyclin K and DDB1; [34]): 3.3098 and 3.397
TR-FRET signal (CDK12–cyclin K and DDB1; compound concentration 2448 nM): 3.437 and 3.468
TR-FRET signal (CDK12–cyclin K and DDB1; [35]): 3.722 and 3.727
TR-FRET signal (CDK12–cyclin K and DDB1; [36]): 3.796 and 3.749
EC50 (CDK12–cyclin K and DDB1; [37]): 263 ± 13 nM
EC50 (CDK12–cyclin K and DDB1; [38]): 263 nM
SMILES: O=C(CSc1nc2ccccc2[nH]1)Nc1ccc(Cl)cn1 [dCeMM3]

Lanthascreen signal, sheet CDK2 (CDK2–cyclin A; [2]): 0.01291 and 0.01309
Lanthascreen signal, sheet CDK2 (CDK2–cyclin A; Compound 0.038147 nM, experiment r48-r58): 0.01261 and 0.01224
Lanthascreen signal, sheet CDK2 (CDK2–cyclin A; [3]): 0.01309 and 0.01357
Lanthascreen signal, sheet CDK2 (CDK2–cyclin A; Compound 0.152588 nM, experiment r48-r58): 0.01492 and 0.0157
Lanthascreen signal, sheet CDK2 (CDK2–cyclin A; [4]): 0.01337 and 0.01331
Lanthascreen signal, sheet CDK2 (CDK2–cyclin A; Compound 0.610352 nM, experiment r48-r58): 0.01553 and 0.01443
Lanthascreen signal, sheet CDK2 (CDK2–cyclin A; [5]): 0.008871 and 0.008854
Lanthascreen signal, sheet CDK2 (CDK2–cyclin A; [6]): 0.01028 and 0.01056
Lanthascreen signal, sheet CDK2 (CDK2–cyclin A; [7]): 0.01086 and 0.009918
Lanthascreen signal, sheet CDK2 (CDK2–cyclin A; [8]): 0.01301 and 0.01353
Lanthascreen signal, sheet CDK2 (CDK2–cyclin A; Compound 9.76563 nM, experiment r48-r58): 0.01491 and 0.01554
Lanthascreen signal, sheet CDK2 (CDK2–cyclin A; [9]): 0.008252 and 0.009758
Lanthascreen signal, sheet CDK2 (CDK2–cyclin A; [10]): 0.01344 and 0.01357
Lanthascreen signal, sheet CDK2 (CDK2–cyclin A; Compound 39.0625 nM, experiment r48-r58): 0.01615 and 0.01531
Lanthascreen signal, sheet CDK2 (CDK2–cyclin A; [11]): 0.01148 and 0.009734
Lanthascreen signal, sheet CDK2 (CDK2–cyclin A; [12]): 0.01338 and 0.01316
Lanthascreen signal, sheet CDK2 (CDK2–cyclin A; Compound 156.25 nM, experiment r48-r58): 0.01495 and 0.01468
Lanthascreen signal, sheet CDK2 (CDK2–cyclin A; [13]): 0.01013 and 0.01019
Lanthascreen signal, sheet CDK2 (CDK2–cyclin A; [14]): 0.01286 and 0.01329
Lanthascreen signal, sheet CDK2 (CDK2–cyclin A; Compound 625 nM, experiment r48-r58): 0.01515 and 0.01544
Lanthascreen signal, sheet CDK2 (CDK2–cyclin A; [15]): 0.01297 and 0.01246
Lanthascreen signal, sheet CDK2 (CDK2–cyclin A; Compound 2500 nM, experiment r48-r58): 0.0142 and 0.01439
Lanthascreen signal, sheet CDK2 (CDK2–cyclin A; [16]): 0.01019 and 0.009543
Lanthascreen signal, sheet CDK2 (CDK2–cyclin A; [17]): 0.01011 and 0.01128
Lanthascreen signal, sheet CDK2 (CDK2–cyclin A; Compound 10000 nM, experiment r48-r58): 0.01389 and 0.01345
Lanthascreen signal, sheet CDK2 (CDK2–cyclin A; [18]): 0.009534 and 0.01103
IC50 (CDK2–cyclin A; [19]): > 10000 nM
IC50 (CDK2–cyclin A; [20]): > 10000 nM
DC50 ([1]; source data sheet correlations, read-out: DC50): 1210 nM
TR-FRET signal (CDK12–cyclin K and DDB1; [21]): 0.3047 and 0.3012
TR-FRET signal (CDK12–cyclin K and DDB1; compound concentration 2.16 nM): 0.3265 and 0.3171
TR-FRET signal (CDK12–cyclin K and DDB1; compound concentration 3.6 nM): 0.3554 and 0.3435
TR-FRET signal (CDK12–cyclin K and DDB1; compound concentration 4.68 nM): 0.2015 and 0.1931
TR-FRET signal (CDK12–cyclin K and DDB1; [22]): 0.4106 and 0.4108
TR-FRET signal (CDK12–cyclin K and DDB1; [23]): 0.4953 and 0.4972
TR-FRET signal (CDK12–cyclin K and DDB1; compound concentration 21.6 nM): 0.3497 and 0.3693
TR-FRET signal (CDK12–cyclin K and DDB1; [24]): 0.6975 and 0.7097
TR-FRET signal (CDK12–cyclin K and DDB1; compound concentration 36 nM): 0.6301 and 0.6713
TR-FRET signal (CDK12–cyclin K and DDB1; [25]): 1.033 and 1.024
TR-FRET signal (CDK12–cyclin K and DDB1; [26]): 1.054 and 1.091
TR-FRET signal (CDK12–cyclin K and DDB1; [27]): 1.438 and 1.46
TR-FRET signal (CDK12–cyclin K and DDB1; [28]): 1.569 and 1.639
TR-FRET signal (CDK12–cyclin K and DDB1; [29]): 2.039 and 2.019
TR-FRET signal (CDK12–cyclin K and DDB1; [30]): 2.287 and 2.2
TR-FRET signal (CDK12–cyclin K and DDB1; [31]): 2.739 and 2.6898
TR-FRET signal (CDK12–cyclin K and DDB1; [32]): 3.062 and 3.005
TR-FRET signal (CDK12–cyclin K and DDB1; [33]): 3.187 and 3.255
TR-FRET signal (CDK12–cyclin K and DDB1; [34]): 3.478 and 3.348
TR-FRET signal (CDK12–cyclin K and DDB1; compound concentration 2448 nM): 3.234 and 3.447
TR-FRET signal (CDK12–cyclin K and DDB1; [35]): 3.901 and 3.875
TR-FRET signal (CDK12–cyclin K and DDB1; [36]): 3.981 and 3.769
EC50 (CDK12–cyclin K and DDB1; [37]): 279 ± 12 nM
EC50 (CDK12–cyclin K and DDB1; [38]): 279 nM
EC50 (CDK12–cyclin K and DDB1; source data sheet correlations, read-out: TR-FRET EC50): 279 nM
SMILES: Cc1ccc(C(=O)N2CSCC2C(=O)Nc2ncc(C)s2)o1 (stereo not drawn) [dCeMM4]
